Source: patent publication US7572783B2 (Amgen Inc., priority 2004, dated 2009)

Biological target: T1, human GHSR1a (Homo sapiens, UniProt Q92847)
T1 construct: expressed in transfected cells
Test: Aequorin luminescent functional assay (intracellular Ca2+, ghrelin-stimulated)
Details: stable cell line expressing human GHSR1a and apoaequorin; final ghrelin 3x EC50 (20 nM); read-out: Class (based on IC50 values)
Procedure: IC50 values of inventive compounds may be assessed as follows. An aequorin (Euroscreen) luminescent assay (Stabels et al., 1997) measuring the intracellular Ca^2+ concentration was used as the functional assay to evaluate the potency of the compounds. A stable cell line, expressing human GHSR1a and apoaequorin in mitochondria was used in the aequorin assay. 5×10^6 cells per mL were incubated at room temperature in HyClone Media (Perbio) supplemented with 2 μM coelenterazine (Molecular Probes). After 2 hrs cells were diluted to 1×10^6 cells per ml in HyClone Medium.
50 μL of the cell suspension was added to each well of a 96-well plate containing 50 μL of compound, diluted in HyClone Medium. The cell suspension/compound mixture was incubated for 30 seconds before 50 μL of a 9× EC50 concentrations of a human ghrelin solution, in HyClone Medium, was injected. The final Ghrelin concentration was 3× EC50 (20 nM). Aequorin luminescence elicited by intracellular Ca^2+ in the cells was recorded for a total of 60 seconds with a microplate luminometer (Microlumate, Berthold). IC50 of the compounds in this assay was calculated with Prism 4.

T1 sequence (Q92847 whole entry): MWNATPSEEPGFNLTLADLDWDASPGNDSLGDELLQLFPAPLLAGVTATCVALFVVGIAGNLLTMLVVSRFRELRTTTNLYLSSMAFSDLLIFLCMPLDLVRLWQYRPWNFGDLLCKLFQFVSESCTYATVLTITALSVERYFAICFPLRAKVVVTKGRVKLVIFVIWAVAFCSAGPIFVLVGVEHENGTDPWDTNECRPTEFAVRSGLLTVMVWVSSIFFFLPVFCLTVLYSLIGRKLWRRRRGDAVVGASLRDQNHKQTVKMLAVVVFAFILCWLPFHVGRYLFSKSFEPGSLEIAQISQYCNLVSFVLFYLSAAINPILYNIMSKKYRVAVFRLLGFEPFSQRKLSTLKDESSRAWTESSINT

Structure (SMILES) | IC50 [nM]
CC(C)C(C(=O)N1CCC(NCc2ccc(F)cc2)CC1)N1CC=Cc2ccc(Oc3ccc(F)cc3F)cc2C1=O (stereo not shown) [8-(2,4-difluoro-phenoxy)-2-{1-[4-(4-fluoro-benzylamino)-piperidine-1-carbonyl]-2-methyl-propyl}-2,3-dihydro-benzo[c]azepin-1-one] | ≤ 10
CC(C)C(COC(=O)NC1CCN(Cc2ccccc2)CC1)N1CC(=O)Nc2ccc(Oc3ccc(F)cc3)cc2C1=O (stereo not shown) [(1-benzyl-piperidin-4-yl)-carbamic acid 2-[7-(4-fluoro-phenoxy)-2,5-dioxo-1,2,3,5-tetrahydro-benzo[e][1,4]diazepin-4-yl]-3-methyl-butyl ester] | 50 to 500
CC(C)(CO)NCc1cccc([C@@H](C2CC2)N2CCc3ccc(Oc4ccc(F)cc4F)cc3C2=O)n1 [(R)-2-(cyclopropyl(6-((1-hydroxy-2-methylpropan-2-ylamino)methyl)pyridin-2-yl)methyl)-7-(2,4-difluorophenoxy)-3,4-dihydroisoquinolin-1(2H)-one] | ≤ 10
O=C1c2cc(Oc3ccc(F)cc3F)ccc2CCN1[C@@H](c1cccc(CNCC(F)F)n1)C1CC1 [(R)-2-(cyclopropyl(6-((2,2-difluoroethylamino)methyl)pyridin-2-yl)methyl)-7-(2,4-difluorophenoxy)-3,4-dihydroisoquinolin-1(2H)-one] | ≤ 10
O=C1c2cc(Oc3ccc(F)cc3F)ccc2CCN1[C@@H](c1cccc(CNCCF)n1)C1CC1 [(R)-2-(cyclopropyl(6-((2-fluoroethylamino)methyl)pyridin-2-yl)methyl)-7-(2,4-difluorophenoxy)-3,4-dihydroisoquinolin-1(2H)-one] | ≤ 10
O=C1c2cc(Oc3ccc(F)cc3F)ccc2CCN1[C@@H](c1cccc(CNC2CC2)n1)C1CC1 [(R)-2-(cyclopropyl(6-((cyclopropylamino)methyl)pyridin-2-yl)methyl)-7-(2,4-difluorophenoxy)-3,4-dihydroisoquinolin-1(2H)-one] | ≤ 10
O=C1c2cc(Oc3ccc(F)cc3F)ccc2CCN1[C@@H](c1cccc(CNCC2CC2)n1)C1CC1 [(R)-2-(cyclopropyl(6-((cyclopropylmethylamino)methyl)pyridin-2-yl)methyl)-7-(2,4-difluorophenoxy)-3,4-dihydroisoquinolin-1(2H)-one] | ≤ 10
Cc1cc(F)ccc1Oc1ccc2c(c1)C(=O)N(C(C(=O)NC1CCN(Cc3ccccc3)CC1)C(C)C)Cc1ncc(C)n1-2 (stereo not shown) [N-(1-benzyl-piperidin-4-yl)-2-[8-(4-fluoro-2-methyl-phenoxy)-1-methyl-6-oxo-4H,6H-3,5,10b-triaza-benzo[e]azulen-5-yl]-3-methyl-butyramide] | ≤ 10
Cc1ccccc1Oc1ccc2ncn(C(C(=O)NC3CCN(Cc4ccccc4)CC3)C(C)C)c(=O)c2c1 (stereo not shown) [N-(1-benzyl-piperidin-4-yl)-3-methyl-2-(4-oxo-6-o-tolyloxy-4H-quinazolin-3-yl)-butyramide] | 10 to 50
CC(C)C(COC(=O)NC1CCN(Cc2ccc(F)cc2)CC1)N1CC(=O)Nc2ccc(Oc3ccc(F)cc3)cc2C1=O (stereo not shown) [[1-(4-Fluoro-benzyl)-piperidin-4-yl]-carbamic acid 2-[7-(4-fluoro-phenoxy)-2,5-dioxo-1,2,3,5-tetrahydro-benzo[e][1,4]diazepin-4-yl]-3-methyl-butyl ester] | 50 to 500
